Several values for one entry are separate records, joined by “and”; a condition that tells them apart may be missing. Identical values can stand only once. Like-named read-outs stand apart in the source and are kept apart here.
Experiments:
[1] = oral toxicity (LD50) in mice; details: mouse, in vivo, read-out: LD50 orally in mice
[2] = clinical theophylline blood level on 4th day, theophylline alone or with idrocilamide (Tables 3 and 4); details: inferred from clinical blood levels
Description: A series of comparative clinical tests were conducted. Five male adults asthma patients took a simultaneous dose of 200 mg theophylline and 100 mg idocrilamide twice a day orally, at 0800 and 2000 hours. On the 4th day, after establishment of a state of equilibrium, the theophylline blood level in the patients under treatment was determined at various times. The determinations were made by highpressure liquid chromatography (Waters apparatus, Lichrosorb RP 18 adsorbent of Merck, methanol, formamide, monopotassium phosphate solvent. Detection by UV spectrophotometry).
The time in hours (t) after the morning dose is plotted on the x-axis, the time 0 corresponding to the dose of medicine on the 4th day. The theophylline blood concentrations in mg/l (th mg/l) are plotted on the y-axis.

[3] = cited from earlier work
bronchial smooth muscles = details: cited from earlier work
mastocytes = details: hypersensitivity reactions; cited from earlier work
[4] = cited from earlier work; remark: listed apart in the source
phosphodiesterase = details: cited from earlier work
pulmonary vital capacity = details: digestive disorders, nervous troubles, cardiac troubles, neurological symptoms; cited from earlier work
cyclic AMP = details: cited from earlier work
in vivo = details: rat, po, 15 mg/kg
Description: Groups of the so-treated animals were killed by carotid section 15', 30', 1 h, 2 h, 3 h, 4 h, 6 h, and 8 h after administration of the theophylline. The blood was collected in herparinized, centrifuged tubes, and the plasma was decanted. The theophylline blood level was determined in plasma samples after extraction by liquid chromatography.

O=C(C=Cc1ccccc1)NCCO [Compound I, N-(2-hydroxyethyl)cinnamamide]
LD50 [1]: 3000 mg/kg
action mechanism on theophylline metabolism [2]: interference of idrocilamide on the metabolism of theophylline

O=C(C=Cc1ccc(Cl)cc1)NCCO [Compound II, N-(2-hydroxyethyl)-4-chlorocinnamamide]
LD50 [1]: 1600 mg/kg

CN(CCO)C(=O)C=Cc1ccccc1 [Compound III, N-methyl, N-(2-hydroxyethyl)cinnamamide]
LD50 [1]: 3000 mg/kg

CC(CO)NC(=O)C=Cc1ccccc1 (stereo not shown) [Compound IV, N-[2-(1-hydroxypropyl)]cinnamamide]
LD50 [1]: 3200 mg/kg

CC1(C)OCCN1C(=O)C=Cc1ccccc1 [Compound IX, 3-cinnamoyl-2,2-dimethyloxazolidine]
LD50 [1]: > 3200 mg/kg

O=C(C=Cc1ccc(F)cc1)NCCO [Compound V, N-(2-hydroxyethyl)-4-fluorocinnamamide]
LD50 [1]: > 3200 mg/kg

CC(=O)c1ccc(C=CC(=O)NCCO)cc1 [Compound VI, N-(2-hydroxyethyl)-4-acetylcinnamamide]
LD50 [1]: 3200 mg/kg

CC1(C)OCCN1C(=O)C=Cc1ccc(Cl)cc1 [Compound VII, 3-(4-chlorocinnamoyl)-2,2-dimethylloxazolidine]
LD50 [1]: > 3200 mg/kg

CC1(C)OCCN1C(=O)C=Cc1ccc(F)cc1 [Compound VIII, 2,2-dimethyl-3-(4-fluorocinnamoyl) oxazolidine]
LD50 [1]: 2000 mg/kg

Cn1c(=O)c2[nH]cnc2n(C)c1=O [theophylline, 1,3-dimethylxanthine]
solubility in water [3]: slightly soluble in water
effect of intrapulmonary administration by aerosol (bronchial smooth muscles; aerosol): ineffective
bronchodilating action (bronchial smooth muscles): active toward all bronchoconstrictive agents
inhibiting action on mastocytes (mastocytes): partially inhibiting their degranulation
metabolism ([4]; in vivo): metabolized at the hepatic level to give inactive metabolites eliminated by the kidneys
half-life ([4]; normal adult): ~6 h and 4 h
oral absorption [4]: very good
oral absorption ([4]; listed as Theophylline): absorbed very well orally
rectal absorption ([4]; rectal): very irregular
inhibition of phosphodiesterase (phosphodiesterase): competitive inhibition
concentration above which intolerance signs can appear (pulmonary vital capacity): > 20000 ng/mL
tissue increase of cyclic AMP (cyclic AMP): tissue increase of cyclic AMP
AUC at 8 h (in vivo): 95.1 µg·h/mL
AUC(0-inf) (in vivo): 117 µg·h/mL
Cmax (in vivo): 20300 ng/mL
concentration at 0.25 h (in vivo): 17500 ng/mL
concentration at 0.5 h (in vivo): 20300 ng/mL
concentration at 1 h (in vivo): 18900 ng/mL
concentration at 2 h (in vivo): 16700 ng/mL
concentration at 3 h (in vivo): 13900 ng/mL
concentration at 4 h (in vivo): 12000 ng/mL
concentration at 6 h (in vivo): 8040 ng/mL
concentration at 8 h (in vivo): 4320 ng/mL
half-life (in vivo): 3.47 h

Reference: patent publication US4512994A, “Long-acting theophylline in medicinal form” (priority 1982, dated 1985)
